The text below walks through data of US20170298055A1, “sGC STIMULATORS” (IRONWOOD PHARMACEUTICALS, INC., priority 2014, published 2017).

The assay addresses T1, human recombinant soluble guanylate cyclase enzyme α1β1 (Homo sapiens, UniProt Q02108+Q02153).
T1 construct: purchased Enzo Life Sciences ALX-201-177
T1 sequence (Q02153 1-619): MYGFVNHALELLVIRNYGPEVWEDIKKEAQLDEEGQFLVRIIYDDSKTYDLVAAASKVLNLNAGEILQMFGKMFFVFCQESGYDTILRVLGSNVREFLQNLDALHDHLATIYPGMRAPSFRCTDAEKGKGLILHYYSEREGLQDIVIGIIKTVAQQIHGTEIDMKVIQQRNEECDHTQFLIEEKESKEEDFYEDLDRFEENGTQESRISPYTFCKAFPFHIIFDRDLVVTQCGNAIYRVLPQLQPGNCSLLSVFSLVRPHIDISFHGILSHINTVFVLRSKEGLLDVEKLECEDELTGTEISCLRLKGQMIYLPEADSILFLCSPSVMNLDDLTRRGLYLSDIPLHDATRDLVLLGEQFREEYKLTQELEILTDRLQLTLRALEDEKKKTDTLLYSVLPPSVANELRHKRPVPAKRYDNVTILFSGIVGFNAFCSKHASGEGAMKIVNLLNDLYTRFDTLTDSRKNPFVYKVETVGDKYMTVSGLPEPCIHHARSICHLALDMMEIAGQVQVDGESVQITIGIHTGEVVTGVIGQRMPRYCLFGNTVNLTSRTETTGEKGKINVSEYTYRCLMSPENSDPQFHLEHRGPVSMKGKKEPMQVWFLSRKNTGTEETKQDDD
T1 sequence (Q02108 1-690): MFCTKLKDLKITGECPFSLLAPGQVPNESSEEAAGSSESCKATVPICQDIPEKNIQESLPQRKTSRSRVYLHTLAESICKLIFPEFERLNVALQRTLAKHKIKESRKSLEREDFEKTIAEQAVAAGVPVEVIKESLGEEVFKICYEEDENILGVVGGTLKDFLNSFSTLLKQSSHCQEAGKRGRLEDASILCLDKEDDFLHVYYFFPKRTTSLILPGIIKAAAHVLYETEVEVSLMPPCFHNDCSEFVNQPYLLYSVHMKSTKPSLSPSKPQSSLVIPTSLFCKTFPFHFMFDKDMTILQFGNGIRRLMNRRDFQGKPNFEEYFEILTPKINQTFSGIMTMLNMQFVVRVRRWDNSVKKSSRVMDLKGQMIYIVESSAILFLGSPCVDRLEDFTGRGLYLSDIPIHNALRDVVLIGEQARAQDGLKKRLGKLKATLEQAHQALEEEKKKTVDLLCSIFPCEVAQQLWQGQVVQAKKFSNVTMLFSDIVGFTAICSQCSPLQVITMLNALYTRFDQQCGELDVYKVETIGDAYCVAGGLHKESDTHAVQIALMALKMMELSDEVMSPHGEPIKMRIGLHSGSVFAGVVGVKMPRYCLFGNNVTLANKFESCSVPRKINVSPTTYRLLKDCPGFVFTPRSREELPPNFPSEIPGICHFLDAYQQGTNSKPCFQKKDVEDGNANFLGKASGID
Kind of assay: Purified human recombinant sGC α1β1 enzyme assay with DETA-NONOate, cGMP HTRF (Example 5). The settings on record: 30 uM DETA NONOate, 50% of maximal response of 30 uM Compound Y, read-out: sGC_Enz_HTRF_a1b1 EC50/IC50 Abs (Norm) (nM) Binned. The assay is classed as biochemical. The procedure:
Purified human recombinant soluble guanylate cyclase enzyme α1β1 (h sGC) obtained from Enzo Life Sciences (P/N: ALX-201-177) was used to evaluate the activity of test compounds. The assay reactions contained 0.1 M Tris (pH 8.0), 0.5 mg/mL BSA, 2 mM DTT, 4 mM MgCl2, 30 uM DETA NONOate (Enzo Life Science P/N: ALX-430-014), and 12.5 ng/ml human soluble guanylate cyclase enzyme. […] Guanosine 5′-triphosphate (Sigma-Aldrich P/N: G8877) was added to a final concentration of 300 μM and enzyme reactions were incubated (100 μL, 384-well plate format) at 37° C. for 20 minutes. The controls contained 3% DMSO (low control), or 30 uM of Compound Y (high control). After the 20 minute incubation, the reaction was stopped with the addition of 100 μL of ice cold 20% acetic acid.
cGMP concentrations in all samples were determined using the cGMP HTRF (Cisbio P/N: 62GM2PEC) assay per manufacturer's instructions. A cGMP standard curve was fit using a 4-parameter fit (log(inhibitor) vs. response variable slope) using GraphPad Prism Software v.6. Samples were diluted appropriately to ensure that values fell within the linear range of the standard curve.
Data were fit using a 4-parameter fit (log(agonist) vs. response variable slope) using GraphPad Prism Software v.6.
In general terms: In TR-FRET formats the signal depends on donor and acceptor labels being close together.

Consider `OCCOc1nc(-c2cc(-c3ccon3)n(Cc3ccccc3F)n2)ncc1F` [Compound I-1], for which the EC50 fell in the range of 1000 to 5000 nM. For `CN(C)CCOc1nc(-c2cc(-c3ccon3)n(Cc3ccccc3F)n2)ncc1F` [Compound I-2] the value was 1000 to 5000 nM.
